Results published in ChEMBL document CHEMBL3507680, “University of Dundee, Gates Library screen for HepG2 cell viability”.

Experiment: Human HepG2 cell viability assay in 384 well format
Assay type: toxicity, cell-based
Parameters: dose 125 nL, time 70.5 hour; concentration not given beside the values
Conditions: HepG2 cells, read-out: Inhibition

| Compound | cytotoxicity at 70.5 h [%] |
| --- | --- |
| CCN(c1ccccc1)S(=O)(=O)c1cc(C(=O)O)cc2c1CCC2 | 21.2 |
| CC1CCN(CC2CCN(C(=O)c3c[nH]c4ncccc34)CC2)CC1 | -19.4 |
| CCN(c1cccc(F)c1)S(=O)(=O)c1cc(C(=O)O)cc2c1CCC2 | -9.22 |
| COc1cc(C(C)=O)ccc1SCC(=O)Nc1cccc(C)n1 | -19.2 |
| CCN(C)c1ccc(CNC(=O)c2ccc(NC(N)=O)cc2)cc1F | -17.6 |
| CCc1nc(CNC2CCCCNC2=O)cs1 (configuration not stated) | -6.64 |
| CCN(C(=O)NCCc1ccc(C)cc1C)C(C)CS(C)(=O)=O (configuration not stated) | -12.9 |
| CCN(C(=O)NCCc1cccc(F)c1F)C(C)CS(C)(=O)=O (configuration not stated) | -5.85 |
| CCN(C(=O)NCCc1ccccc1Cl)C(C)CS(C)(=O)=O (configuration not stated) | 20.5 |
| NC(=O)c1ccc(OCC(=O)NC2CCc3c(F)cccc32)cc1 (configuration not stated) | -5.14 |
| O=C(O)c1cc2c(c(S(=O)(=O)N(CCCO)c3ccccc3)c1)CCC2 | -10.1 |
| COC(C)(C)CNC(=O)N(C)Cc1nc(-c2ccccc2)c[nH]1 | 24.9 |
| CN(Cc1nc(-c2ccccc2)c[nH]1)C(=O)NCC(=O)NC(C)(C)C | -5.84 |
| O=C(NCCCc1cccs1)N1CCCCC1CCO (configuration not stated) | -1.44 |
| CCOCC1CCN(C(=O)Nc2ccc3c(c2)CCCN3C)C1 (configuration not stated) | -10.4 |
| OCC(O)CSCc1nnc(-c2ccc(Cl)cc2)o1 (configuration not stated) | -13.7 |
| COc1cc(F)ccc1N1CCN(Cc2nnc(C3CC3)o2)CC1 | -14.9 |
| CC(C)CNC(=O)Cn1cc(C(N)=O)c(-c2ccccc2)n1 | -8.01 |
| CCC(CC)NC(=O)Cn1cc(C(N)=O)c(-c2ccccc2)n1 | 17.3 |
| CC(Cc1ccco1)NC(=O)CCn1cccn1 (configuration not stated) | -14.7 |
| CCCN(C(=O)c1csnn1)C1CCCN(Cc2ccccc2)C1 (configuration not stated) | -5.57 |
| CC(C(=O)Nc1cccc(Cl)c1)N1CCN(Cc2ncc[nH]2)CC1 (configuration not stated) | -10.6 |
| O=C(CCc1nc(C2CC2)no1)c1ccccc1 | -16 |
| CC(C)c1noc(CCNC(=O)N2CCC(O)(C(F)(F)F)C2)n1 (configuration not stated) | -14.8 |

| Compound | cytotoxicity at 70.5 h [%] |
| --- | --- |
| Cc1ccccc1CNc1ccccc1OCC(=O)N1CCOCC1 | -3.34 |
| O=C(CCn1ccc2ccccc21)Nc1ccnn1CC1CCOC1 (configuration not stated) | -16.3 |
| Cc1cc(C(N)=O)c2c(Br)cccc2n1 | -13.6 |
| O=C1NC(c2cnc(C3CCC3)s2)Nc2ncccc21 (configuration not stated) | -26.5 |
| Cc1ccc(NCc2cc(C#N)ccc2F)cc1-n1nnnc1C | -13.2 |
| CN(CCC(N)=O)Cc1cc(Br)cs1 | -19.7 |
| COC(=O)CN(C)Cc1cc(Br)cs1 | 38.2 |
| OC(COCc1ccccc1)CN1CCC(Cn2cccn2)CC1 (configuration not stated) | -22.4 |
| CCCn1nnnc1COc1ccc(C(=O)OC)cc1 | -11.5 |
| CCN(C(=O)COC)C(c1ccc(Cl)cc1)c1ccccn1 (configuration not stated) | -21.9 |
| Clc1ccc(CNc2cnn(CCN3CCOCC3)c2)cc1Cl | -19.4 |
| CS(=O)(=O)c1cccc(OCC(=O)N2CCCC2c2ccccc2Cl)c1 (configuration not stated) | -2.69 |
| CCCN(Cc1cnn(C)c1)CC1CCCN(S(C)(=O)=O)C1 (configuration not stated) | 23.4 |
| CC(C)N(Cc1cnn(C)c1)CC1CCCN(S(C)(=O)=O)C1 (configuration not stated) | 10.1 |
| Cc1ccc(N2CCCC(N3CCC(N(C)C)CC3)C2=O)cc1 (configuration not stated) | 13.2 |
| Cc1ccc(NC(=O)CNc2ccn(CC(N)=O)n2)c(Cl)c1 | -7.52 |
| CC(C(=O)NCC1(c2cccc(Br)c2)CCC1)S(C)(=O)=O (configuration not stated) | 7 |
| CC(=O)N1CCN(C(=O)CNc2ccc3sccc3c2)CC1 | -4.15 |
| CC(=O)N1CCN(C(=O)CNc2ccc3ncsc3c2)CC1 | -5.1 |
| O=C(NCCOCC1CC1)Nc1ccc(F)cc1 | -9.49 |
| CC(=O)c1ccc(Cl)c(Cl)c1OCC(=O)NC(N)=O | 14.2 |
| CC(=O)c1ccc(Cl)c(Cl)c1OCC(=O)NCC(F)(F)F | -8.87 |
| Nc1cc2c(nn1)CCN(C(=O)c1cccnc1Oc1ccccc1)C2 | -8.86 |
| CC(C)OCc1cccc(NC(=O)N2CCCC(CCC(N)=O)C2)c1 (configuration not stated) | 6.13 |

| Compound | cytotoxicity at 70.5 h [%] |
| --- | --- |
| CN(C)C1(CNC(=O)Cc2ccc(F)cc2)CCOCC1 | -5.15 |
| Nc1cc2c(nn1)CCN(C(=O)c1ccc(Oc3cccnc3)cc1)C2 | -9.26 |
| CN(C)C1(CNC(=O)C2CCCN2Cc2ccc(F)cc2)CCOCC1 (configuration not stated) | 6.73 |
| COC(=O)C1CCN(C(=O)Nc2cc(-n3cccc3)ccc2F)CC1 | -6.77 |
| CC(C)NC(=O)CS(=O)(=O)c1cc2c(cc1Cl)OCCO2 | -3.28 |
| Cn1cc(CNc2cnn(CCO)c2)c(-c2ccncc2)n1 | -5.07 |
| Cc1ccc(N2CCCC(N3CCC4(CC3)OCCO4)C2=O)cc1 (configuration not stated) | -7.88 |
| O=C(Nc1cc(-n2cccc2)ccc1F)N1CCCC1 | -11.7 |
| NC(=O)N1CCCN(C(=O)Nc2cc(-n3cccc3)ccc2F)CC1 | -6.12 |
| CN(CC1CCCN(S(C)(=O)=O)C1)c1cnn(C)c1 (configuration not stated) | 18.9 |
| COc1cncc(N2CCN(Cc3cccn3C)CC2)n1 | 3.9 |
| CCOc1cccnc1C(=O)N1CCC(c2ccccc2OC)C1 (configuration not stated) | -8.54 |
| COc1ccccc1C1CCN(C(=O)c2ncccc2OC(C)C)C1 (configuration not stated) | -1.72 |
| COc1cc(CNC2CCN(c3ccccc3)C2)cc(OC)c1OC (configuration not stated) | -6.84 |
| COCCn1cc(NCc2cn(C)nc2-c2ccncc2)cn1 | 21.2 |
| CCN(Cc1cnn(C)c1)C(=O)c1ccccc1O | -6.92 |
| N#Cc1cnn(CCN2CCOC(CNc3cccnn3)C2)c1 (configuration not stated) | 4.89 |
| c1cnnc(NCC2CN(CCn3cncn3)CCO2)c1 (configuration not stated) | 11.7 |
| O=C(c1ccc(O)nc1)N1CCN(C(=O)c2ccc(F)c(F)c2)CC1 | -2.92 |
| CN(Cc1cccc(F)c1)C(=O)CS(=O)(=O)Cc1c(Cl)cccc1Cl | 5.76 |
| COc1ccc(C2CCCCCN2Cc2nnc(C)o2)cc1 (configuration not stated) | -3.01 |
| COc1ccccc1N1CCC(CNS(=O)(=O)c2c(C)nn(C)c2C)C1 (configuration not stated) | 2.25 |
| Cc1nc(C)c(CC(=O)N2CCC(Oc3ccccc3)CC2)c(=O)[nH]1 | -7.9 |
| CC(C)c1nn(C)c(N(C)C)c1CNC1CCC(O)CC1 (configuration not stated) | -6.96 |

| Compound | cytotoxicity at 70.5 h [%] |
| --- | --- |
| O=C(COC1CCCC1)NC(C(=O)Nc1cc[nH]n1)c1ccccc1 (configuration not stated) | 3.78 |
| c1cc(CN2CCN(Cc3ccon3)C3(CCCCC3)C2)no1 | 4.47 |
| O=C(NCCC1Cc2ccccc2C1)N1CCCC(O)C1 (configuration not stated) | 26.4 |
| CN(C)c1cccc(C2CCCN2CCCN2CCOC2=O)c1 (configuration not stated) | 7.84 |
| COc1cc(C)c(CNC(C)c2nc(C)cs2)cc1OC (configuration not stated) | -2.23 |
| CC(c1ccccc1Cl)N1CCN(C(=O)c2ccc(=O)[nH]c2)CC1 (configuration not stated) | 2 |
| CCN(C)CC1CCN(C(=O)NCCC2Cc3ccccc3C2)C1 (configuration not stated) | -6.72 |
| Cc1nnc(CN2CCCC2c2ccc(C(C)(C)C)cc2)o1 (configuration not stated) | -3.63 |
| Cc1nnc(CN2CCCC2c2ccsc2)o1 (configuration not stated) | -4.6 |
| N#Cc1cc(Cl)ccc1N1CCN(C(=O)C2CCC2)CC1 | -1.06 |
| CNC(=O)c1cccc(NC(=O)CN2CCCN(S(C)(=O)=O)CC2)c1 | -5.6 |
| CC(C)(NC(=O)c1ccc(-c2ccc(F)cc2)s1)C(N)=O | 4.62 |
| CCOCCCC(=O)Nc1cccnc1-n1ccnc1C | -6.87 |
| O=C(NCc1ccccc1F)N1CCC(C2OCCO2)CC1 | -7.09 |
| COc1ccc(CC(=O)N2CCCN(c3ccc(C#N)cc3)CC2)cc1 | -2.17 |
| COc1cccc(N2CCN(CCC(=O)NC3CCCC3)CC2)c1 | -5.97 |
| Cc1nc(CC(=O)N2CCCN(c3ccc(C#N)cc3)CC2)cs1 | -8.68 |
| Cc1noc(C(C)C)c1C(=O)NS(=O)(=O)c1ccc(Cl)cc1 | -3.31 |
| CN(C(=O)Cc1ccc(NC(=O)NC2CCC2)cc1)c1ccccc1 | 38.2 |
| CC(C)(O)CN1CCN(C(=O)c2cc3ccccc3c(=O)[nH]2)CC1 | -3.18 |
| CCc1nccn1C1CCCN(C(=O)c2cn3c(C)cccc3n2)C1 (configuration not stated) | -3.89 |
| O=C(Cc1ccc2c(c1)CCO2)N1CCCCC1Cn1cccn1 (configuration not stated) | -2.84 |
| COCCN(C)C(=O)Nc1ccc2c(ccn2CCOC)c1 | 32.1 |
| CCCn1ccc2ccc(NC(=O)N(C)CCOC)cc21 | -1.44 |

| Compound | cytotoxicity at 70.5 h [%] |
| --- | --- |
| CC(=O)NC(C)c1ccc(OCC2CC2)c(F)c1 (configuration not stated) | -6.57 |
| COCC(=O)N(C)Cc1ccc(Cl)c(Cl)c1 | -12.6 |
| COCCn1ccc(NC(=O)Nc2cccnc2)n1 | -2.62 |
| COc1ccc(CC(=O)N2CCCCC2Cn2cccn2)cc1OC (configuration not stated) | -2.2 |
| CN(Cc1nccn1CC(F)(F)F)C(=O)c1cccc(C#N)c1 | -7.89 |
| Cc1noc(C(C)C)c1C(=O)NS(=O)(=O)c1ccc2c(c1)OCCCO2 | -9.35 |
| Cc1noc(Cl)c1CCC(=O)N1CCCCC1Cn1cccn1 (configuration not stated) | 1.4 |
| Cc1cnn(C2CCCN(C(=O)c3cc(C)sc3C)C2)c1 (configuration not stated) | -2.62 |
| Cc1cc(C)n(CCCNC(=O)C(C)NC(=O)c2ccccc2Cl)n1 (configuration not stated) | -8.83 |
| CN(Cc1cnn(C)c1)C(=O)Cn1c(CS(C)(=O)=O)nc2ccccc21 | -12.9 |
| CCc1noc(C(C)N2CCN(c3ccc(C#N)cn3)CC2)n1 (configuration not stated) | -2.7 |
| Cc1nc(C2(NCC(=O)NCCc3cccs3)CCCC2)no1 | -9.55 |
| Cc1cc(C)n(CC(C)CNC(=O)[C@@H](C)NC(=O)OC(C)(C)C)n1 (some centres not stated) | -27.5 |
| COc1ccc(CCN2CCN(C(=O)c3scnc3C)CC2)cc1 | -5.8 |
| O=C(NCCCNC(=O)c1cccc(O)c1)Nc1ccc(F)cc1F | -2.92 |
| CCOCCCC(=O)NCCC(=O)N1CCN(c2ccccn2)CC1 | -13.4 |
| Cc1noc(C(C)N2CCN(CCC(=O)N3CCCCC3)CC2)n1 (configuration not stated) | -8.82 |
| CCc1nc(CC(=O)NCC(Cc2ccc(F)cc2)C(N)=O)cs1 (configuration not stated) | 29.6 |
| Cc1cccc(CC(=O)N2CCCCC2CN)c1 (configuration not stated) | -3.78 |
| NCC1CCCCN1C(=O)Cc1ccc(F)c(F)c1 (configuration not stated) | -9.5 |
| Cc1nn(C)c(Cl)c1CNCc1cccnc1N1CCN(C)CC1 | 2.87 |
